Results taken from patent US20070134286A1, “Methods for reducing intimal hyperplasia, smooth muscle cell proliferation and restenosis in mammals” (priority 2004, published 2007).
Like-named read-outs stand apart in the source and are kept apart here.

Tests used:
VDR = conditions: 0.1 μM, CASMC in growth medium, not all cells responded, FIG. 2
[1] = tested on: primary culture of human coronary artery smooth muscle cells; assay: Affymetrix U133Av2 microarray gene expression; type: cell-based; conditions: 100 nM, 30 hr, ratio to no-drug control
Protocol: Microarray: […] While the yield of total RNA was low ([…] total per sample), the RNAs were intact as judged by Agilent 2100 analysis. One μg of total RNA from each sample was used to prepare biotin-labeled cRNA target using standard Affymetrix protocols. Prepared cRNA targets were of good quality and quantity. The Affymetrix Human chip U133Av2 was used (22,000+ probe sets) and 10 μg cRNA target was applied to each array. […] Scanned images were loaded into the Rosetta Resolver 4.0 database and processed using the Resolver Affymetrix error model. Within Resolver the drug treated sample replicates (n=3) were informatically combined and ratios constructed relative to the combined control (no addition of drug) samples. The Resolver Affymetrix error model was used to develop each ratio and calculate a p-value. The Resolver error model is robust and includes reporter level, background and error values in the calculation of statistical significance. A combination of hierarchical clustering, gene ontology analysis and pathway mapping were used to assess the function of the regulated genes.

[2] = tested on: human coronary artery smooth muscle cells; assay: 3H-thymidine incorporation (DNA synthesis / cell proliferation); type: cell-based
Protocol: One day after plating, the cells were treated with test agents for 24 hours and then labeled with 0.3 μCi/well of ^3H-thymidine for another 48 hours. Each well was washed with 0.3 ml/well of PBS, incubated with 0.2 ml/well of ice-cold 10% trichloroacetic acid (hereinafter “TCA”) for 30 minutes at 4° C., and then followed by another wash of 0.2 ml/well of TCA. Samples were dissolved in MICROSCINT™ 20 before counting. Data shown are mean ± the standard deviation (n=4).
Thymidine incorporation: Cells were plated at 1×10^6 cells/ml, 200 μl/well into 96-well plates (Costar). One day after plating, the cells were treated with test agents for 24 hr and then labeled with 0.3 μCi/well of ^3H-thymidine for another 48 hr. Each well was washed with 0.3 ml/well of PBS, incubated with 0.2 ml/well of ice-cold 10% trichloroacetic acid (TCA) for 30 min at 4° C., and then followed by another wash of 0.2 ml/well of TCA. Samples were dissolved in MICROSCINT™ 20 (Packard) before counting.

WT1 = assay: Real-time RT-PCR, WT1 mRNA expression in smooth muscle cells; type: cell-based; conditions: Homo sapiens, normalized to GAPDH, FIG. 7, read-out: EC50 on WT1 mRNA expression (up-regulation)
Protocol: (§1) Primers and probes for Real-time Reverse Transcription-PCR: For quantitative PCR (qPCR), TaqMan™ probes that were 5′ labeled with the reporter 6-carboxyfluorescein (FAM) and 3′ labeled with the quencher tetramethylrhodamine (TAMRA) were used. The primer and probe sets were obtained from the Assay-on-Demand collection (Applied Biosytsems).
(§2) Real-time Reverse Transcription-PCR: PCR was performed with a 7900HT sequence detector (Applied Biosytsems). Each sample has a final volume of 25 μl containing 50 ng of cDNA, […] each of the forward and reverse PCR primers and […] of the TaqMan™ probe. Temperature conditions consisted of a step of 5 minutes at 95° C., followed by 40 cycles of 60° C. for 1 minute and 95° C. for 15 seconds. Data was collected during each extension phase of the PCR reaction and analyzed with the SDS software package (Applied Biosystems). Threshold cycles were determined for each gene. The expression level of target gene of interest was given as relative expression normalized against glyceraldehyde-3-phosphate dehydrogenase (GAPDH).

TGFβ3 = assay: Real-time RT-PCR, TGFβ3 mRNA expression in smooth muscle cells; type: cell-based; conditions: Homo sapiens, normalized to GAPDH, FIG. 7, read-out: EC50 on TGFβ3 mRNA expression (up-regulation)
Protocol: as §1, §2

IGF1 = assay: Real-time RT-PCR, IGF1 mRNA expression in smooth muscle cells; type: cell-based; conditions: Homo sapiens, normalized to GAPDH, FIG. 7, read-out: EC50 on IGF1 mRNA expression (up-regulation)
Protocol: as §1, §2

[3] = tested on: plasminogen activator inhibitor type-1 (PAI-1); assay: SDS-PAGE and Western blot of PAI-1 in CASMC; type: cell-based, human; conditions: Western blot, FIG. 6
Protocol: SDS-PAGE and Western Blot Analysis: Cells (1×10^6 cells per sample) pretreated with or without test agents were solubilized in 50 μl of SDS-PAGE sample buffer (Sigma, St. Louis, Mo.), and the protein content in each sample was determined by the Pierce (Rockford, Ill.) BCA protein assay. Samples were resolved by SDS-PAGE using a 4-12% NuPAGE gel (Invitrogen, Carlsbad, Calif.), and proteins were electrophoretically transferred to polyvinylidene fluoride (hereinafter “PVDF”) membrane for Western blotting. The membrane was blotted for 1 hour at 25° C. with 5% nonfat dry milk in PBS-T and then incubated with a mouse anti-PAI-1 monoclonal antibody (1000-fold dilution, Santa Cruz Biotechnology, Santa Cruz, Calif.) in PBS-T overnight at 4° C. The membrane was washed with PBS-T and incubated with a horseradish peroxidase-labeled anti-mouse antibody for 1 hour at 25° C. The membrane was then incubated with detection reagent (SuperSignal WestPico, Pierce, Rockford, Ill.). Specific bands were visualized by exposing the paper to Kodak BioMax films.

C[C@H](/C=C/[C@H](C)C(C)(C)O)[C@H]1CC[C@H]2/C(=C/C=C3C[C@@H](O)C[C@H](O)C3)CCC[C@]12C [paricalcitol, 19-nor-1α,3β,25-trihydroxy-9,10-secoergosta-5(Z); 7(E),22(E)-triene]
VDR translocation (confocal microscopy) (VDR): VDR translocated into the nucleus
FC CD1D antigen, d polypeptide (205789_at) [1]: 5.38
FC CDK5 regulatory subunit associated protein 2 (220935_s_at) [1]: 2.91
FC Kruppel-like factor 4 (gut) (220266_s_at) [1]: 2.37
FC PMS2 postmeiotic segregation increased 2 (S. cerevisiae) (209805_at) [1]: 2.18
FC Wilms tumor 1 (206067_s_at) [1]: 3.32
FC Wilms tumor 1 (216953_s_at) [1]: 4.64
FC Wilms tumor associated protein (206954_at) [1]: 2.72
FC basic helix-loop-helix domain containing, class B, 3 (221530_s_at) [1]: −1.80
FC cholecystokinin B receptor (210381_s_at) [1]: −3.04
FC cyclin F (204827_s_at) [1]: −2.75
FC cysteine and glycine-rich protein 2 (207030_s_at) [1]: −2.18
FC cysteine and glycine-rich protein 2 (211126_s_at) [1]: −2.33
FC ecotropic viral integration site 2A (204774_at) [1]: −2.49
FC fibroblast growth factor 9 (glia-activating factor) (206404_at) [1]: 1.88
FC insulin-like growth factor 1 (somatomedin C) (209540_at) [1]: 4.89
FC insulin-like growth factor 1 (somatomedin C) (209541_at) [1]: 2.63
FC insulin-like growth factor 1 (somatomedin C) (209542_x_at) [1]: 3.24
FC insulin-like growth factor 1 (somatomedin C) (211577_s_at) [1]: 3.43
FC mitogen-activated protein kinase 13 (210058_at) [1]: 2.40
FC mitogen-activated protein kinase 13 (210059_s_at) [1]: 3.26
FC myosin heavy polypeptide 10, non-muscle (213067_at) [1]: −1.80
FC putative lymphocyte G0/G1 switch gene (213524_s_at) [1]: 3.46
FC retinoblastoma-like 2 (p130) (212332_at) [1]: −1.37
FC suppressor of cytokine signaling 2 (203372_s_at) [1]: −2.70
FC suppressor of cytokine signaling 2 (203373_at) [1]: −2.39
FC tetraspan 1 (209114_at) [1]: −1.79
FC transforming growth factor, beta 2 (209909_s_at) [1]: 2.48
FC transforming growth factor, beta 2 (220407_s_at) [1]: 1.88
FC transforming growth factor, beta 3 (209747_at) [1]: 2.80
FC angiopoietin 1 (NM_001146) ([1]; Table 4): 1.7
FC coagulation factor II (thrombin) receptor-like 1 (NM_005242) ([1]; Table 4): −2.1
FC endothelin receptor type B (NM_000115) ([1]; Table 4): 2.3
FC fibroblast growth factor 9 (glia-activating factor) (NM_002010) ([1]; Table 4): 1.9
FC fibroblast growth factor receptor 3 (achondroplasia, thanatophoric dwarfism) (NM_000142) ([1]; Table 4): 3.4
FC insulin-like growth factor 1 (somatomedin C) (NM_000618) ([1]; Table 4): 2.5
FC matrix metalloproteinase 14 (membrane-inserted) (NM_004995) ([1]; Table 4): 1.1
FC natriuretic peptide precursor B (NM_002521) ([1]; Table 4): −2.5
FC oxytocin receptor (NM_000916) ([1]; Table 4): −2.6
FC phospholamban (NM_002667) ([1]; Table 4): −2.4
FC prostaglandin-endoperoxide synthase 1 (prostaglandin G/H synthase and cyclooxygenase) (NM_000962) ([1]; Table 4): 2.0
FC thrombomodulin (NM_000361) ([1]; Table 4): 3.0
FC thrombospondin 1 (AI812030) ([1]; Table 4): −2.7
FC transforming growth factor, beta 2 (NM_003238) ([1]; Table 4): 2.5
FC transforming growth factor, beta 3 (J03241) ([1]; Table 4): 2.9
EC50 ([2]; Homo sapiens, Example 1, CASMC, FIG. 4, read-out: EC50 inhibiting DNA synthesis ([3H]-thymidine incorporation)): 0.044 ± 0.004 nM
EC50 ([2]; Homo sapiens, Example 2, FIG. 8, read-out: EC50 inhibition of 3H-thymidine incorporation): 0.2 nM
inhibition at 0.01 µM ([2]; Homo sapiens, Example 2, at 10 nM, compared to cells in growth medium): 46%
EC50 (WT1): 29.7 nM
EC50 (TGFβ3): 10.6 nM
EC50 (IGF1): 0.2 nM
potency in reducing PAI-1 level / inhibiting PAI-1 expression [3]: as potent as calcitriol

CC(=O)O[C@H]1C(=O)[C@@]2(C)[C@H]([C@H](OC(=O)c3ccccc3)[C@]3(O)C[C@H](OC(=O)[C@H](O)[C@@H](NC(=O)c4ccccc4)c4ccccc4)C(C)=C1C3(C)C)[C@]1(OC(C)=O)CO[C@@H]1C[C@@H]2O [taxol]
effect on DNA synthesis ([3H]-thymidine incorporation) ([2]; Example 1, even at 0.01 nM, FIG. 3): severely impacted DNA synthesis
